Publication PMC10609173, “Antiplasmodial and Antileishmanial Activities of a New Limonoid and Other Constituents from the Stem Bark of Khaya senegalensis” (Molecules, 2023)
Values after ≈ are worked out from the molar mass of the structure shown. Read-outs that look alike come from different tables or passages of the source.

Tests used:
[1] = tested on: amastigote forms of Leishmania donovani; set-up: method as in doi:10.1076/phbi.39.4.284.5921; details: isolated from Khaya senegalensis; cited from earlier work
[2] = tested on: chloroquine-sensitive 3D7 strain of Plasmodium falciparum (Pf3D7); experiment: Antiplasmodial SYBR Green I fluorescence assay, Pf3D7 strain; format: cell-based; details: read-out: Antiplasmodial Activity Pf3D7 IC50 ± SD
Source text: (§1) The parasite strains used in this study are continuously cultured at the Antimicrobial and Biocontrol Agents Unit of the University of Yaoundé I, and were graciously provided by BEI Resources (https://www.beiresources.org (accessed on 16 February 2019)). They comprise the Leishmania donovani strain (1S(MHOM/SD/62/1S), the multiresistant (PfDd2), and the chloroquine-sensitive (Pf3D7-(MRA-102)) strains of Plasmodium falciparum. RPMI 1640 media supplemented with 0.2% sodium bicarbonate (Sigma Aldrich, Billings, MT, USA), 0.5% Albumax II (Gibco), 1% hypoxanthine 100X (Gibco, Billings, MT, USA), 25 mM HEPES, and 0.04% gentamicin (Sigma Aldrich) was used to sustain P. falciparum strains in sterile petri dishes. Fresh red blood cells from healthy O^+ human volunteers were also added to the medium. These cells were suspended at 4% hematocrit (v/v) and incubated at 37 °C in a humidified environment with 5% CO2. To regularly maintain the culture, fresh medium was added to the culture every day. Thin blood smears stained with 10% Giemsa were used to microscopically monitor cell-cycle transition and parasitemia under immersion oil.
(§2) The antiplasmodial efficacy of the samples was evaluated using the SYBR Green I-based fluorescence assay, as previously reported by Smilkstein et al., on a sorbitol-synchronized ring stage culture of Plasmodium falciparum (PfDd2 and Pf3D7 strains). The test relies on the development of intense fluorescence following SYBR green binding to the exposed DNA found in wells containing healthy cells. Ninety microliters of parasites prepared with 1% hematocrit and 2% parasitemia and 10 μL of test sample extracts, fractions, isolated chemicals, chloroquine, and artemisinin were each added in triplicate into wells of a flat-bottomed microplate. The final test concentration values for the samples varied from 50 μg/mL-0.08 μg/mL and 100 μg/mL-0.16 μg/mL for extract/fractions. Following a 72 h incubation at 37 °C, 100 μL of SYBR Green I solution prepared with lysis buffer (0.2 μL of 10,000 SYBR Green I per mL of lysis buffer) made of EDTA (5 mM), Tris (20 mM; pH 7.5), Triton X-100 (0.08%; v/v), and saponin (0.008%; m/v) was added to each well. Fluorescence measurements were taken using an Infinite M200 microplate reader (Tecan, MT, USA) at emission and excitation wavelengths of 538 and 485 nm, respectively.
(§3) The resulting fluorescence readings were used to calculate the growth inhibition percentages relative to the negative control for each sample and for each of the tested doses. GraphPad Prism 8.0 software was used to generate concentration-response curves from the nonlinear regression fit to determine the median inhibitory or cytotoxic concentration (IC50/CC50). The resistance index (RI) for antiplasmodial tests was calculated as the ratio between the samples’ IC50 values for the chloroquine-sensitive strain 3D7 and the multiresistant strain Dd2 [69]. Inhibitors with an RI value below 1 were considered to act preferentially on the resistant strain. Based on each inhibitor’s antiparasitic efficacy (IC50) and cell toxicity (CC50), selectivity indices (SI) were calculated [SI = CC50 (RAW)/IC50 (Parasites)]. Samples were classified as poorly toxic to RAW cells if their SI values were greater than 10 [70].

[3] = tested on: multidrug-resistant Dd2 strain of Plasmodium falciparum (PfDd2); experiment: Antiplasmodial SYBR Green I fluorescence assay, PfDd2 strain; format: cell-based; details: Plasmodium falciparum
Source text: as §1, §2, §3

[4] = tested on: promastigote form of Leishmania donovani (1S(MHOM/SD/62/1S)); experiment: Antileishmanial resazurin-based assay on promastigotes; format: cell-based; details: for IC50: Leishmania donovani, read-out: Antileishmanial Activity IC50 ± SD; for Antileishmanial Selectivity (SI): SI = CC50 against macrophages/IC50 against promastigotes
Procedure: A T-75 cm^2 cell culture flask was filled with complete Medium 199 [M199 supplemented with 10% heat-inactivated fetal bovine serum (HIFBS) and 100 IU/mL penicillin/streptomycin (Sigma, Darmstadt, Germany)] and used to grow the promastigote forms of Leishmania donovani. Every 72 h, flasks were subcultured and incubated at 28 °C.
The resazurin-based assay was used to evaluate the antileishmanial activity of the extract (100 μg/mL–0.16 μg/mL), major fractions (100 μg/mL–0.16 μg/mL), and isolated compounds (50 μg/mL–0.08 μg/mL) against the promastigote form of Leishmania donovani. Briefly, 10 μL of inhibitors at various triplicate doses (as prescribed for the antiplasmodial assay) were added to 90 μL of promastigotes from a logarithmic phase culture at a density of 4.10^5 parasites/mL. The plates were incubated for 28 h at 28 °C, and 10 μL of resazurin solution (Sigma, Darmstadt, Germany) was added. Amphotericin B (Sigma, Darmstadt, Germany) (10 μg–0.016 μg/mL) and 0.1% DMSO-treated wells were used as the […], respectively. After a further 44 h of incubation, plates were read using a Magelan Infinite M200 fluorescence plate reader (Tecan, Männedorf, Switzerland) at excitation and emission wavelengths of 530 and 590 nm, respectively.
as §3

[5] = Cytotoxicity assay (resazurin) on RAW 264.7 macrophages; format: cell-based, murine; details: mouse
Procedure: The murine macrophage RAW 264.7 cell line was grown in DMEM (Dulbecco’s modified Eagle’s medium) containing 1% penicillin-streptomycin, 1% nonessential amino acids (NEA), and 10% HIFBS at 37 °C, and 5% CO2 in a humidified environment. A reverse Etaluma fluorescence microscope was used to view the cells every day, and the growth media was replaced every 72 h. At 80% confluence, cells were isolated using 0.25% Trypsine-EDTA (Gibco, MT, USA).
The murine macrophages, RAW 264.7 cells, were plated into a 96-well cell culture treated flat-bottomed plate ([…], Inc., Newton, NC 28658, USA) at a density of 10 × 10^4 cells/100 μL/well and incubated overnight to enable cell adhesion. A fresh complete medium containing serially diluted concentrations of crude extract, fractions, and compounds was used to replace the previous medium. The final assay concentration values for extracts/fractions and compounds varied from 400 μg/mL to 0.8 μg/mL and 100–0.16 μg/mL, respectively. Podophyllotoxin (Sigma-Aldrich, Munich, Germany) was used as a positive control at a maximum dose of 10 μM. After 48 h of incubation, 10 μL of resazurin solution (0.15 mg/mL dissolved in PBS) was added to each well, and the plates were incubated for an additional 4 h. Fluorescence data were finally recorded with a Magellan Infinite M200 plate reader (Tecan, Germany) at excitation and emission wavelengths of 530 nm and 590 nm, respectively.
as §3

[6] = tested on: chloroquine-sensitive/sulfadoxine-resistant Pf3D7 strain; set-up: method as in PMID 36837917; details: in vitro; isolated from Trichilia monadelpha; cited from earlier work
[7] = tested on: amastigote; set-up: method as in PMID 15070160; details: from Pourouma guianensis; cited from earlier work
[8] = tested on: Leishmania amazonensis; set-up: method as in PMID 21343887; details: cited from earlier work
[9] = tested on: promastigote; set-up: method as in PMID 15070160; details: from Pourouma guianensis; cited from earlier work
[10] = tested on: clinical isolate of P. falciparum; set-up: method as in doi:10.1080/13880200601009123; details: cited from earlier work
[11] = 3D7, Pf3D7 strain, ring stage, 72 h
[12] = DD2, PfDd2 strain, ring stage, 72 h, read-out: Antiplasmodial Activity PfDd2 IC50 ± SD
[13] = L. donovani promastigotes, 28 °C
[14] = RAW 264.7 macrophage cells, RAW 264.7 macrophages, 48 h incubation, resazurin, read-out: Cytotoxicity on RAW 264.7 Cells CC50 ± SD
[15] = DD2, 72 h, read-out: Antiplasmodial Activity PfDd2 IC50 ± SD, PfDd2 strain, ring stage, 72 h
[16] = RAW 264.7 macrophages, 48 h incubation, resazurin, read-out: Cytotoxicity on RAW 264.7 Cells CC50 ± SD

## Oc1cc(O)c2c(c1)O[C@H](c1ccc(O)c(O)c1)[C@@H](O)[C@@H]2c1c(O)cc(O)c2c1O[C@H](c1ccc(O)c(O)c1)[C@@H](O)C2 [catechin-(4a,8)-catechin]
[1]
  IC50 against amastigote forms of Leishmania donovani: 3.98 µg/mL

## C[C@@H]1CC[C@H]2[C@@H](C)C(=O)O[C@@H]3O[C@@]4(C)CC[C@@H]1[C@]32OO4 [Artemesin, artemisinin, reference compound]
[2]; [11]
  IC50: 0.02 µg/mL (≈ 0.0708 µM)
[3]; [12]
  IC50: 0.024 ± 0.24 µg/mL (≈ 0.085 µM)

## COC(=O)[C@H](O)[C@@H]1[C@@]2(C)[C@H]3CC[C@@]4(C)[C@H](c5ccoc5)OC(=O)C[C@@]45O[C@H]4C(=O)[C@@]1(C)C[C@]2(OC(C)=O)[C@@H]4[C@@]35O [Khayanolide E (6), khayanolide E]
[4]; [13]
  IC50: 81.73 ± 0.12 µg/mL (≈ 146 µM)
[4]
  Antileishmanial Selectivity (SI): 0.99
[5]
  CC50 at 48 h: 81.6 µg/mL (≈ 146 µM)
[6]
  IC50 against Pf3D7: 1.68 µg/mL (≈ 3.01 µM)
[2]; [11]
  IC50: 56.98 ± 0.08 µg/mL (≈ 102 µM)
[3]; [12]
  IC50: 14.03 ± 0.06 µg/mL (≈ 25.1 µM)

## CC1(C)CC[C@]2(C(=O)O)CC[C@]3(C)C(=CC[C@@H]4[C@@]5(C)CC[C@H](O)C(C)(C)[C@@H]5CC[C@]43C)[C@@H]2C1 [Oleanolic acid (7), oleanolic acid]
[7]
  IC50, antiamastigote inhibitory activity: 27 µg/mL (≈ 59.1 µM)
[4]; [13]
  IC50: 30.6 ± 0.67 µg/mL (≈ 67.1 µM)
[4]
  Antileishmanial Selectivity (SI): ˃13.06
[8]
  IC50, growth of Leishmania amazonensis: 439.5 µg/mL
[5]; [14]
  CC50 at 48 h: > 400 µg/mL
[2]; [11]
  IC50: 93.58 ± 0.92 µg/mL (≈ 205 µM)
[3]; [15]
  IC50: 43.6 ± 0.73 µg/mL (≈ 95.4 µM)
[9]
  IC50, antipromastigote effect: 10 µg/mL (≈ 21.9 µM)
[10]
  IC50, growth of clinical isolate of P. falciparum: 15.2 µg/mL

## C[C@@H]1[C@H](O)[C@@H](C)/C=C/C=C/C=C/C=C/C=C/C=C/C=C/[C@H](O[C@@H]2O[C@H](C)[C@@H](O)[C@H](N)[C@@H]2O)C[C@@H]2O[C@](O)(C[C@@H](O)C[C@@H](O)[C@H](O)CC[C@@H](O)C[C@@H](O)CC(=O)O[C@H]1C)C[C@H](O)[C@H]2C(=O)O [Amphotericin B, amphotericin B, reference compound]
[4]; [13]
  IC50: 3.14 ± 0.46 µg/mL (≈ 3.4 µM)

## C=C1C2C(OC3CC(=O)OC4(C)COC(=O)CC4C32C)C(OC(=O)C(O)C(C)CC)C2(C)C(c3ccoc3)CC(=O)C12O (stereo not drawn) [Rohituka-3 (5), rohituka-3]
[4]; [13]
  IC50: 23.35 ± 0.21 µg/mL (≈ 38.9 µM)
[4]
  Antileishmanial Selectivity (SI): >17.13
[5]; [14]
  CC50 at 48 h: > 400 µg/mL
[2]; [11]
  IC50: 68 ± 0.02 µg/mL (≈ 113 µM)
[3]; [15]
  IC50: 15.9 ± 0.33 µg/mL (≈ 26.5 µM)

## COc1cc([C@@H]2c3cc4c(cc3[C@H](O)[C@H]3COC(=O)[C@H]23)OCO4)cc(OC)c1OC [Podophyllotoxin, reference compound]
[5]; [16]
  CC50 at 48 h: 0.71 ± 0.2 µg/mL (≈ 1.71 µM)

## CC1(C)CC[C@]2(C(=O)O)CC[C@]3(C)C(=CCC4[C@@]5(C)C[C@@H](O)[C@H](O)C(CO)(CO)C5CC[C@]43C)C2[C@@H]1O (stereo partly drawn) [Bellericagenin B (2), bellericagenin B]
[4]; [13]
  IC50: 6.5 ± 0.01 µg/mL (≈ 12.5 µM)
[4]
  Antileishmanial Selectivity (SI): >61.54
[5]
  CC50 at 48 h: > 400 µg/mL
[2]; [11]
  IC50: 107.7 ± 0.37 µg/mL (≈ 207 µM)
[3]; [12]
  IC50: 34.02 ± 0.09 µg/mL (≈ 65.3 µM)

## CCN(CC)CCCC(C)Nc1ccnc2cc(Cl)ccc12 (stereo not drawn) [Chloroquine, Chloroquine phosphate, reference compound]
[2]; 3D7, 72 h
  IC50: 0.022 ± 0.25 µg/mL
[3]; DD2, 72 h, read-out: Antiplasmodial Activity PfDd2 IC50 ± SD
  IC50: 0.085 ± 0.01 µg/mL

## COc1ccc(-c2cc(=O)c3c(O)c(OC)c(OC)cc3o2)cc1OC [Belamcanidin (8), Belamcanidin]
[4]; [13]
  IC50: 22.21 ± 0.08 µg/mL (≈ 62 µM)
[4]
  Antileishmanial Selectivity (SI): >18.013
[5]
  CC50 at 48 h: > 400 µg/mL
[2]; [11]
  IC50: 104.9 ± 0.39 µg/mL (≈ 293 µM)
[3]; [12]
  IC50: 50.97 ± 0.37 µg/mL (≈ 142 µM)

## Oc1cc(O)c2c(c1)O[C@H](c1ccc(O)c(O)c1)[C@@H](O)[C@@H]2c1c(O)cc2c(c1O)C[C@H](O)[C@@H](c1ccc(O)c(O)c1)O2 [catechin-(4a,6)-catechin]
[1]
  IC50 against amastigote forms of Leishmania donovani: 3.85 µg/mL

## C=C(C)[C@@H]1CC[C@]2(C(=O)O)CC[C@]3(C)[C@H](CC[C@@H]4[C@@]5(C)C[C@@H](O)[C@H](O)C(C)(C)[C@@H]5CC[C@]43C)[C@@H]12 [Alphitolic acid (3), alphitolic acid]
[4]; [13]
  IC50: 17.1 ± 0.9 µg/mL (≈ 36.2 µM)
[4]
  Antileishmanial Selectivity (SI): 2.09
[5]
  CC50 at 48 h: 35.8 µg/mL (≈ 75.6 µM)
[2]; [11]
  IC50: 146.77 ± 0.13 µg/mL (≈ 310 µM)
[3]; [15]
  IC50: > 200 µg/mL

## C=C1[C@@H]2CC[C@@]3(C)[C@H](c4ccoc4)OC(=O)C[C@]13O[C@H]1CC(=O)C(C)(C)[C@H](CC(=O)OC)[C@]12C [Methylangolensate (4), methyl angolensate]
[4]
  IC50: 25.8 ± 0.27 µg/mL (≈ 54.9 µM)
  Antileishmanial Selectivity (SI): 2.81
[5]; [16]
  CC50 at 48 h: 72.7 µg/mL (≈ 155 µM)
[2]; 3D7, 72 h
  IC50: 165.19 ± 0.06 µg/mL (≈ 351 µM)
[3]; [15]
  IC50: 20.5 ± 0.45 µg/mL (≈ 43.6 µM)
